Measured values: patent US9162991B2 (University of Ottawa, priority 2007, dated 2015)
“Also recorded” adds a separate entry of the source. Like-named read-outs stand apart in the source and are kept apart here.

Columns and labels:
[1] = molecular target: recombinant guinea pig liver TGase (Cavia cutleri (Guinea pig), UniProt P08587); assay: biochemical; type: biochemical
Method: ENZYME INHIBITION BY COMPOUNDS 14a-c, 14l, 15a, 15d-k, 15m-q, 30a, 30r, 30t, 37a and 38a: For enzymology studies of these compounds, recombinant guinea pig liver TGase was expressed in Escherichia coli and effectively purified (Gillet, S. M. F. G. et al J. N., Prot. Exp. & Purif. 2004, 33, 256).
The mode of inhibition was determined for the representative lead compound 14a through non-linear regression of initial rate data to the Michaelis-Menten equation (FIG. 1).
For the ensuing enzymatic tests, recombinant guinea pig liver TGase was expressed in E. Coli and effectively purified.
Kinetic runs were recorded on a Cary 100 BIO UV-Visible spectrophotometer at 405 nm and 25° C., in a buffer composed of 50 mM CaCl2, 50 μM EDTA and 0.1 M MOPS (pH 7.0). All aqueous solutions were prepared using de-ionized water purified from the Millipore BioCell system. […] Factor XIIIa activity was measured using a coupled-enzyme assay (Day, N.; Keillor, J. W. Anal. Biochem. 1999, 274, 141). Factor XIIIa, was added to a final concentration of 0.89 μg/mL to a pH 8.5 solution (0.1 M Tris-HCl, 5 mM CaCl2 and 10 mM DDT) of 0.5 mM β-NADH, 3.3 mM Na-acetyl-L-lysine methyl ester, 10 mM α-ketoglutaric acid sodium salt and 297 μg/mL glutamate dehydrogenase (GDH).

human caspase 3 = human caspase 3 (Homo sapiens (Human), UniProt P42574); assay: Caspase 3 activity, release of p-nitroaniline from Ac-Asp-Glu-Val-Asp-pNA; type: biochemical
Text: To examine the enzyme selectivity of this new family of TG2 inhibitors, several representative compounds (14a, 15p, 18a, 28a and 30a) were further tested as inhibitors of related enzymes. For these studies, Factor XIIIa was chosen because it is a member of the family of transglutaminase enzymes and its inhibition in vivo may lead to compromised coagulation and toxicity. Caspase 3 was also chosen because as a cysteine protease, its acyl transfer mechanism is phenomenologically similar to that of TGase. At concentrations approaching the limits of their solubility, most of those compounds had no discernable effect on the activities of either of these enzymes (data not shown). […] This selectivity bodes well for in vivo application.
The subsequent absorbance decrease was followed at 340 nm at 37° C. Caspase 3 activity was measured by monitoring the release of p-nitroaniline (pNA) (λabs=405 nm) from the peptidic substrate Ac-Asp-Glu-Val-Asp-pNA (20 μM) catalyzed by human caspase 3 (Sigma, 250 ng/mL) at pH 7.4 (18.6 mM HEPES, 1.9 mM EDTA, 0.09% CHAPS and 4.7 mM DTT).

[2] = test system: tissue transglutaminase (TG2); assay: Cytochrome c (cytC) promoter/luciferase reporter assay in CHO cells; type: cell-based, Chinese Hamster; details: 100 μM, CHO cells incubated 12 hours, luminescence of cell lysate
Text: IN VITRO STUDIES FOR COMPOUND 15a: A cytochrome c (cytC) promoter/luciferase reporter assay (illustrated in FIG. 6) was used to assess tissue transglutaminase (TG2) activity for compound 15a. In the absence of TG2, transcription factors bind to the cytC promoter region of the luciferase gene, and the level of expressed luciferase is detected from the luminescence of the Chinese Hamster Ovary (CHO) cell lysate (A). The level of effective cytC promoter is sensitive to endogenous TG2 co-expressed in CHO cells. High TG2 expression results in low promoter activity, presumably because the transcription factors that bind to the cytC promoter have Gln-rich sequences that are modified by TG2-mediated hydrolysis or transamidation (B). In the presence of TG2 inhibitors, TG2-induced silencing of the promoter is repressed and luciferase is detected in the lysate once more (C). In this assay, CHO cells are incubated in the presence of the inhibitor compound for 12 hours, after which the luminescence of cell lysate is measured, as an indication of the level of TG2 inhibition.

[3] = Table 3, influence of the acylated moiety, read-out: IC50 (μM), class symbol
[4] = Table 1, substituent on the cinnamoyl aromatic group, read-out: IC50 (μM), class symbol
[5] = Table 1, value in brackets, read-out: IC50
[6] = Table 3, value in brackets, read-out: IC50

Chain of recombinant guinea pig liver TGase (P08587 whole entry): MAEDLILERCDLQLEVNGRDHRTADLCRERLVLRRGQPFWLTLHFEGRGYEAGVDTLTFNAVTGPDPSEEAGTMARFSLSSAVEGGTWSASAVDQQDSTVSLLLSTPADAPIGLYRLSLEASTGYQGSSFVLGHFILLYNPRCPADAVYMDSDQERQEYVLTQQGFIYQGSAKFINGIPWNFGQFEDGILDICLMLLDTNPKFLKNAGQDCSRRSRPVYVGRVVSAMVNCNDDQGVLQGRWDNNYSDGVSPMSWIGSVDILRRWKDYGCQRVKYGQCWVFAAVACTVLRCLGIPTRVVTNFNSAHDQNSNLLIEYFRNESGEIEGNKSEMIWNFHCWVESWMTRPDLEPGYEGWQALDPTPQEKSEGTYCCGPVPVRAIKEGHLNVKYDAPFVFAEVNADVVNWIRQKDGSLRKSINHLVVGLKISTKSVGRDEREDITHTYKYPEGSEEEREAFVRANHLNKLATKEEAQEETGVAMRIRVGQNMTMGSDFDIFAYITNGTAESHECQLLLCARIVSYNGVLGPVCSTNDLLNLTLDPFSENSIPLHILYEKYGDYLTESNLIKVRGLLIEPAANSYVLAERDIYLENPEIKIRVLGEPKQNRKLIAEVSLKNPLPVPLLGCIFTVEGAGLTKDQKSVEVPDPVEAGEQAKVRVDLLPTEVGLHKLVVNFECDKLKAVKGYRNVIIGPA
Chain of human caspase 3 (P42574 29-175): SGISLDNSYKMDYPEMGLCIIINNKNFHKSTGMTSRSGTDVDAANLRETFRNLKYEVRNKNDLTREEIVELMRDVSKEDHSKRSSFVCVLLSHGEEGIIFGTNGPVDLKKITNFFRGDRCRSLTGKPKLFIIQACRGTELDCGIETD
Chain of human caspase 3 (P42574 176-277): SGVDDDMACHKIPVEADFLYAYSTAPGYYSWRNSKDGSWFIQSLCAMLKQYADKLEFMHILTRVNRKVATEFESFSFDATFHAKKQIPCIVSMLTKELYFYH

Row | SMILES | TGase inhibitory activity (in words) [1] | IC50 [1, 3] [µM] | IC50 [1, 4] [µM] | IC50 [1, 5] [µM] | other results
1 | O=C(C=Cc1ccc([N+](=O)[O-])cc1)On1nnc2cccnc21 [Compound 16a, p-Nitrocinnamoyl oxyazabenzotriazolyl amide] | Inhibitory activity was observed | 20 to 50 | – | – | –
2 | O=C(C=Cc1cccc([N+](=O)[O-])c1)On1nnc2ccccc21 [Compound 14b, m-Nitrocinnamoyl oxybenzotriazolyl amide] | – | – | 20 to 50 | 24 | –
3 | COc1cccc(/C=C/C(=O)n2nnc3ccccc32)c1 [Compound 15e, m-Methoxycinnamoyl benzotriazolyl amide] | – | – | > 50 | > 100 | –
4 | O=C(/C=C/c1ccc([N+](=O)[O-])cc1)c1cc2ccccc2oc1=O [Compound 28a, 3-((E)-3-(4-Nitrophenyl)acryloyl)-2H-chromen-2-one] | – | 20 to 50 | – | – | IC50 [1, 6]: 48 µM; IC50 ([1]; read-out: IC50): 48 µM; inhibition at 6 µM (human caspase 3; at 6 μM): 28%; effect on caspase 3 activity (human caspase 3; at concentrations approaching the limits of solubility): slight inhibitory activity
5 | O=C(/C=C/c1ccc([N+](=O)[O-])cc1)c1cn(Cc2cc(C(F)(F)F)cc(C(F)(F)F)c2)nn1 [Compound 4j, (E)-1-(1-(3,5-bis(trifluoromethyl)benzyl)-1H-1,2,3-triazol-4-yl)-3-(4-nitrophenyl)prop-2-en-1-one] | activity was lost | – | – | – | IC50 ([1]; Table 6, Huisgen [3+2] cycloaddition products, read-out: IC50 (μM), class symbol): > 50 µM; IC50 ([1]; Table 6, value in brackets, read-out: IC50): > 100 µM
6 | O=C(C=Cc1ccc([N+](=O)[O-])cc1)On1nnc2ccccc21 [Compound 14a, p-Nitrocinnamoyl oxybenzotriazolyl amide] | Inhibitory activity was observed | 20 to 50 | 20 to 50 | 43 | mode of inhibition ([1]; versus acyl-donor substrate): competitive inhibition; also recorded: competitive inhibitor
7 | Cc1cccc(/C=C/C(=O)n2nnc3ccccc32)c1 [Compound 15h, m-Methylcinnamoyl benzotriazolyl amide] | – | – | > 50 | > 100 | –
8 | CN(Cc1ccccc1)C(=O)/C=C/c1ccc([N+](=O)[O-])cc1 [Compound 27a, p-Nitrocinnamoyl methylbenzyl amide] | – | > 50 | – | – | –
9 | O=C(/C=C/c1ccc([N+](=O)[O-])cc1)OCc1ccccc1 [Compound 19a, p-Nitrocinnamoyl benzyl ester] | little inhibitory activity | > 50 | – | – | –
10 | O=C(C=Cc1ccccc1[N+](=O)[O-])On1nnc2ccccc21 [Compound 14c, o-Nitrocinnamoyl oxybenzotriazolyl amide] | – | – | > 50 | > 100 | –
11 | O=C(/C=C/c1ccc([N+](=O)[O-])cc1)N1CCCCC1 [Compound 24a, p-Nitrocinnamoyl piperidinyl amide] | – | – | – | – | IC50 [1]: > 50 µM
12 | O=C(/C=C/c1ccc([N+](=O)[O-])cc1)N1CCc2ccccc21 [Compound 25a, p-Nitrocinnamoyl indolinyl amide] | – | > 50 | – | – | –
13 | CC(c1ccccc1)n1cc(C(=O)/C=C/c2ccc([N+](=O)[O-])cc2)nn1 (stereo not drawn) [Compound 4k, (E)-3-(4-nitrophenyl)-1-(1-(1-phenylethyl)-1H-1,2,3-triazol-4-yl)prop-2-en-1-one] | – | – | – | – | IC50 [1]: < 20 µM; loss in potency (fold) [1]: 4 fold; IC50 ([1]; read-out: IC50): 17 µM
14 | O=C(/C=C/C=C/c1ccc([N+](=O)[O-])cc1)c1cccnc1 [Compound 38a, (2E,4E)-5-(4-Nitrophenyl)-1-(pyridine-3-yl)penta-2,4-dien-1-one] | Neither of these two extended conjugated compounds showed significant inhibition | – | – | – | –
15 | O=C(/C=C/c1ccc([N+](=O)[O-])cc1)Nc1cccc2ccccc12 [Compound 23a, p-Nitrocinnamoyl naphtalenyl amide] | – | > 50 | – | – | IC50 [1, 6]: > 200 µM
16 | O=C(/C=C/c1ccc([N+](=O)[O-])cc1)c1cn(Cc2cccc([N+](=O)[O-])c2)nn1 [Compound 4g, (E)-1-(1-(3-nitrobenzyl)-1H-1,2,3-triazol-4-yl)-3-(4-nitrophenyl)prop-2-en-1-one] | – | – | – | – | reduction in potency (fold) [1]: 4-7 fold; IC50 ([1]; IC50 (μM), Table 6, value in brackets): 9.4 µM; IC50 ([1]; IC50 (μM), class symbol, Table 6, Huisgen [3+2] cycloaddition products): < 20 µM
17 | CCCCCCCCn1cc(C(=O)/C=C/c2ccc([N+](=O)[O-])cc2)nn1 [Compound 4b, (E)-3-(4-nitrophenyl)-1-(1-octyl-1H-1,2,3-triazol-4-yl)prop-2-en-1-one] | – | – | – | – | IC50 [1]: 20 to 50 µM; IC50 ([1]; read-out: IC50): 28.5 µM
18 | O=C(Nc1ccc(C=CC(=O)n2nnc3ccccc32)cc1)OCC1c2ccccc2-c2ccccc21 [Compound 15p, p-(9-Fluorenylmethoxycarbonylamino)cinnamoyl benzotriazolyl amide] | – | – | 20 to 50 | 25 | –
19 | O=C(/C=C/c1ccc([N+](=O)[O-])cc1)c1c[nH]nn1 [Compound 4o, (E)-3-(4-nitrophenyl)-1-(1H-1,2,3-triazol-4-yl)prop-2-en-1-one] | relatively high IC50 | – | – | – | IC50 [1]: 20 to 50 µM; IC50 ([1]; read-out: IC50): 45 µM
20 | COC(=O)c1ccc(/C=C/C(=O)n2nnc3ccccc32)cc1 [Compound 15q, p-(Methoxycarbonyl)cinnamoyl benzotriazolyl amide] | – | – | 20 to 50 | 27 | –
21 | Cc1ccccc1/C=C/C(=O)n1nnc2ccccc21 [Compound 15i, o-Methylcinnamoyl benzotriazolyl amide] | – | – | > 50 | > 100 | –
22 | Nc1ccc(/C=C/C(=O)c2cccnc2)cc1 [Compound 30r, (E)-3-(4-aminophenyl)-1-(pyridin-3-yl)prop-2-en-1-one] | as effective as the benzotriazolyl amide inhibitors | – | > 50 | 148 | loss of potency (fold) ([1]; relative to p-nitro azachalcone 30a): 5 fold
23 | O=C(/C=C/c1ccc([N+](=O)[O-])cc1)n1nnc2ccccc21 [Compound 15a, p-Nitrocinnamoyl benzotriazolyl amide] | Inhibitory activity was observed | > 50 | > 50 | 74 | IC50 ([1]; Table 2, influence of the cinnamoyl double bond, read-out: IC50 (μM), class symbol): > 50 µM; IC50 ([1]; Table 2, value in brackets or words, read-out: IC50): 74 µM; inhibition of TG2-mediated silencing of cytC promoter [2]: complete inhibition
24 | O=C(/C=C/c1ccc([N+](=O)[O-])cc1)c1ccccc1 [Compound 31a, reference compound] | lack of activity | – | – | – | –
